Results as given in patent US11485742B2, “2-azaspiro[3.4]octane derivatives as M4 agonists” (NOVARTIS AG, priority 2019, dated 2022).

What was measured:
[1] = target: T1, Cloned human M1 receptor (CHRM1) (Homo sapiens, UniProt P11229); experiment: CHRM1 Ca++ Flux Assay (HEK293 M1 cells, agonist mode); type: cell-based; conditions: for Emax: Percent Activity (PA), read-out: M1 FDSS PA %; for EC50: geometric mean if tested more than once, read-out: M1 FDSS EC50
T1 construct: expressed in transfected cells; host or cells: HEK293
T1 sequence (P11229 1-460): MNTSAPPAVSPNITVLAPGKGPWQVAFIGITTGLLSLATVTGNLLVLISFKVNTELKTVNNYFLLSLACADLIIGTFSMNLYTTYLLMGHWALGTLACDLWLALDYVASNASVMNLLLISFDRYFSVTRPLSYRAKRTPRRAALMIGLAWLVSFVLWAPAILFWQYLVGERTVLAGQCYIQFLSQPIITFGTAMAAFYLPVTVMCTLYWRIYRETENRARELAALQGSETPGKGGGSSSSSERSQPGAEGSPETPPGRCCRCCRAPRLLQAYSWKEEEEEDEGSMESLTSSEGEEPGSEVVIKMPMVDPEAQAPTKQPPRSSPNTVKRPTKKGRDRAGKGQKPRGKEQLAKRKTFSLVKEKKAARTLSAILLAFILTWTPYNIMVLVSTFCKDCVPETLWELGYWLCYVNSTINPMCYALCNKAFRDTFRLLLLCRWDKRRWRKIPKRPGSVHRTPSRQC
Method in brief: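 In agonist mode, compound-induced intracellular Ca++ mobilization was recorded for 3 min by fluorescent imager. The cells were HEK293 stably expressing cloned human CHRM1, in Ca/Mg-free HBSS with 20 mM HEPES. Triplicate 11-point dose-responses were fitted by four-parameter regression and normalized to the carbachol EC100 response.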

[2] = target: T2, human cloned CHRM2 receptor (Homo sapiens, UniProt P08172); experiment: CHRM2 Ca++ Flux Assay (M2_CHO cells, agonist mode); type: cell-based; conditions: M2 CHO cells; for EC50: agonist mode, geometric mean if tested more than once, read-out: M2 FDSS EC50; for Emax: Percent Activity (PA) measured to EC100 of Carbachol, read-out: M2 FDSS PA %
T2 construct: expressed in transfected cells; host or cells: CHO-K1 (M2_CHO)
T2 sequence (P08172 1-466): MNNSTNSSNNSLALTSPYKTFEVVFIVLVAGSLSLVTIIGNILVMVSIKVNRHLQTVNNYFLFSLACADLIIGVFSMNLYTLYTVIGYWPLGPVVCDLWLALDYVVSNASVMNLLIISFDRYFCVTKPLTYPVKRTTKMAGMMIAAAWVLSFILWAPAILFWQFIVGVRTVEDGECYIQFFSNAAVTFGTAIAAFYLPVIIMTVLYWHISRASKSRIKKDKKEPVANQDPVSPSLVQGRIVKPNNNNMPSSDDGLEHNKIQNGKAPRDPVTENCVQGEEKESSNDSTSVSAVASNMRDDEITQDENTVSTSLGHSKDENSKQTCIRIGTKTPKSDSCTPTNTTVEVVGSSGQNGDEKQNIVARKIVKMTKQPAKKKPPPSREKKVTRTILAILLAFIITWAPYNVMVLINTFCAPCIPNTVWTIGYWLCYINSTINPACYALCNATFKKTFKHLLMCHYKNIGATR
Method in brief: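 Agonist activity was expressed as percent of the carbachol EC100 response, fitted by four-parameter regression on triplicate wells, with geometric means across repeat runs. Calcium traces over 3 minutes came from dye-loaded M2_CHO cells (12K/well) pre-incubated 60 min in Ca/Mg-free HBSS with 20 mM HEPES, 2.5 mM probenecid and 20 μM ATP.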

Row | Compound | Emax [1] [%] | EC50 [1] [nM] | EC50 [2] [nM] | Emax [2] [%]
1 | Fc1ccc(OC2COC2)c(C2CCN([C@@H]3COC4(C3)CN(c3nnco3)C4)CC2)c1 [Example 1A, (S)-7-(4-(5-fluoro-2-(oxetan-3-yloxy)phenyl)piperidin-1-yl)-2-(1,3,4-oxadiazol-2-yl)-5-oxa-2-azaspiro[3.4]octane] | 92 | 210 | 536 | 32
2 | Fc1ccc(OC[C@H]2CCOC2)c(C2CCN([C@@H]3COC4(C3)CN(c3nnco3)C4)CC2)c1 [Example 1I, (S)-7-(4-(5-fluoro-2-(((S)-tetrahydrofuran-3-yl)methoxy)phenyl)piperidin-1-yl)-2-(1,3,4-oxadiazol-2-yl)-5-oxa-2-azaspiro[3.4]octane] | 54 | 980 | 531 | 32
3 | Fc1ccc(OCC2CCOCC2)c(C2CCN([C@@H]3COC4(C3)CN(c3nnco3)C4)CC2)c1 [Example 1J, (S)-7-(4-(5-fluoro-2-((tetrahydro-2H-pyran-4-yl)methoxy)phenyl)piperidin-1-yl)-2-(1,3,4-oxadiazol-2-yl)-5-oxa-2-azaspiro[3.4]octane] | 73 | 4090 | 874 | 35
4 | COC(C)(C)CCOc1ccc(F)cc1C1CCN([C@@H]2COC3(C2)CN(c2nnco2)C3)CC1 [Example 1K, (S)-7-(4-(5-fluoro-2-(3-methoxy-3-methylbutoxy)phenyl)piperidin-1-yl)-2-(1,3,4-oxadiazol-2-yl)-5-oxa-2-azaspiro[3.4]octane] | 58 | 1590 | > 25000 | 0
5 | Fc1ccc(OC2COCOC2)c(C2CCN([C@@H]3COC4(C3)CN(c3nnco3)C4)CC2)c1 [Example 1M, (S)-7-(4-(2-((1,3-dioxan-5-yl)oxy)-5-fluorophenyl)piperidin-1-yl)-2-(1,3,4-oxadiazol-2-yl)-5-oxa-2-azaspiro[3.4]octane] | 89 | 1370 | 752 | 23
6 | CC(C)(O)CCOc1ccc(F)cc1C1CCN([C@@H]2COC3(C2)CN(c2nnco2)C3)CC1 [Example 1N, (S)-4-(2-(1-(2-(1,3,4-oxadiazol-2-yl)-5-oxa-2-azaspiro[3.4]octan-7-yl)piperidin-4-yl)-4-fluorophenoxy)-2-methylbutan-2-ol] | 82 | 376 | > 25000 | 0
7 | c1ccc(C2CCN([C@@H]3COC4(C3)CN(c3nnco3)C4)CC2)c(O[C@@H]2CCOC2)c1 [Example 1O, (S)-2-(1,3,4-oxadiazol-2-yl)-7-(4-(2-(((R)-tetrahydrofuran-3-yl)oxy)phenyl)piperidin-1-yl)-5-oxa-2-azaspiro[3.4]octane] | 69 | 1350 | 611 | 36
8 | c1ccc(C2CCN([C@@H]3COC4(C3)CN(c3nnco3)C4)CC2)c(OC2COC2)c1 [Example 1P, (S)-2-(1,3,4-oxadiazol-2-yl)-7-(4-(2-(oxetan-3-yloxy)phenyl)piperidin-1-yl)-5-oxa-2-azaspiro[3.4]octane] | 76 | 439 | 1090 | 51
9 | COc1ccccc1C1CCN([C@@H]2COC3(C2)CN(c2nnco2)C3)CC1 [Example 1Q, (S)-7-(4-(2-methoxyphenyl)piperidin-1-yl)-2-(1,3,4-oxadiazol-2-yl)-5-oxa-2-azaspiro[3.4]octane] | 81 | 678 | 3810 | 16
10 | CC(C)(O)CCOc1cc(F)ccc1C1CCN([C@@H]2COC3(C2)CN(c2nnco2)C3)CC1 [Example 1T, (S)-4-(2-(1-(2-(1,3,4-oxadiazol-2-yl)-5-oxa-2-azaspiro[3.4]octan-7-yl)piperidin-4-yl)-5-fluorophenoxy)-2-methylbutan-2-ol] | 74 | 640 | > 25000 | 0
11 | CC(C)(O)COc1ccc(F)cc1C1CCN([C@@H]2COC3(C2)CN(c2nnco2)C3)CC1 [Example 1U, (S)-1-(2-(1-(2-(1,3,4-oxadiazol-2-yl)-5-oxa-2-azaspiro[3.4]octan-7-yl)piperidin-4-yl)-4-fluorophenoxy)-2-methylpropan-2-ol] | 75 | 961 | > 25000 | 0
12 | c1ccc(C2CCN([C@@H]3COC4(C3)CN(c3nnco3)C4)CC2)c(-c2cncnc2)c1 [Example 1W, (S)-2-(1,3,4-oxadiazol-2-yl)-7-(4-(2-(pyrimidin-5-yl)phenyl)piperidin-1-yl)-5-oxa-2-azaspiro[3.4]octane] | 94 | 335 | 527 | 68
13 | c1ccc(C2CCN([C@@H]3COC4(C3)CN(c3nnco3)C4)CC2)c(-c2ncco2)c1 [Example 1X, (S)-2-(1,3,4-oxadiazol-2-yl)-7-(4-(2-(oxazol-2-yl)phenyl)piperidin-1-yl)-5-oxa-2-azaspiro[3.4]octane] | 99 | 1230 | 2480 | 25

Further compounds by falling EC50 [1], results first:

Row | Emax [1] [%] | EC50 [1] [nM] | EC50 [2] [nM] | Emax [2] [%] | Compound
14 | 75 | 1320 | > 25000 | 0 | COCCOc1ccc(F)cc1C1CCN([C@@H]2COC3(C2)CN(c2nnco2)C3)CC1 [Example 1L, (S)-7-(4-(5-fluoro-2-(2-methoxyethoxy)phenyl)piperidin-1-yl)-2-(1,3,4-oxadiazol-2-yl)-5-oxa-2-azaspiro[3.4]octane]
15 | 91 | 1140 | 416 | 35 | CC1(COc2ccc(F)cc2C2CCN([C@@H]3COC4(C3)CN(c3nncs3)C4)CC2)COC1 [Example 2B, (S)-7-(4-(5-fluoro-2-((3-methyloxetan-3-yl)methoxy)phenyl)piperidin-1-yl)-2-(1,3,4-thiadiazol-2-yl)-5-oxa-2-azaspiro[3.4]octane]
16 | 76 | 670 | 359 | 32 | Fc1cc(O[C@@H]2CCOC2)c(C2CCN([C@@H]3COC4(C3)CN(c3nnco3)C4)CC2)cc1F [Example 1R, (S)-7-(4-(4,5-difluoro-2-(((R)-tetrahydrofuran-3-yl)oxy)phenyl)piperidin-1-yl)-2-(1,3,4-oxadiazol-2-yl)-5-oxa-2-azaspiro[3.4]octane]
17 | 76 | 663 | 598 | 35 | COc1ccc(F)cc1C1CCN([C@@H]2COC3(C2)CN(c2nnco2)C3)CC1 [Example 1V, (S)-7-(4-(5-fluoro-2-methoxyphenyl)piperidin-1-yl)-2-(1,3,4-oxadiazol-2-yl)-5-oxa-2-azaspiro[3.4]octane]
18 | 71 | 634 | 656 | 13 | COc1cc(F)ccc1C1CCN([C@@H]2COC3(C2)CN(c2nnco2)C3)CC1 [Example 1S, (S)-7-(4-(4-fluoro-2-methoxyphenyl)piperidin-1-yl)-2-(1,3,4-oxadiazol-2-yl)-5-oxa-2-azaspiro[3.4]octane]
19 | 107 | 579 | 874 | 35 | Cc1nnc(-c2ccccc2C2CCN([C@@H]3COC4(C3)CN(c3nnco3)C4)CC2)o1 [Example 1Y, (S)-7-(4-(2-(5-methyl-1,3,4-oxadiazol-2-yl)phenyl)piperidin-1-yl)-2-(1,3,4-oxadiazol-2-yl)-5-oxa-2-azaspiro[3.4]octane]
20 | 103 | 553 | 520 | 46 | Fc1ccc(OCC2COC2)c(C2CCN([C@@H]3COC4(C3)CN(c3nncs3)C4)CC2)c1 [Example 2A, (S)-7-(4-(5-fluoro-2-(oxetan-3-ylmethoxy)phenyl)piperidin-1-yl)-2-(1,3,4-thiadiazol-2-yl)-5-oxa-2-azaspiro[3.4]octane]
